Measurements reported in publication PMC7248705, “A Pharmacokinetic and Pharmacodynamic Evaluation of the Anti-Hepatocellular Carcinoma Compound 4-N-Carbobenzoxy-gemcitabine (Cbz-dFdC)” (Molecules, 2020).
Entries after “also recorded” stand apart in the source; their conditions may differ.

Legend:
[1] = system: HepG2 tumor; assay: Antitumor efficacy in vivo, HepG2 tumor-bearing mice; conditions: 15 days, Cbz-dFdC i.g. 22 mg/kg/day vs dFdC i.p. 15 mg/kg/day (equimolar)
Procedure: A cell suspension (2 × 10^7 cells/mL) of HepG2 with 0.2 mL was subcutaneously injected into the right armpits of the mice. After the hepatocellular carcinomas were inoculated, mice bearing an overt tumor with a size of 100–200 mm^3 were randomized into the control and treatment groups. One group was injected (i.p.) with PBS as the control group, Cbz-dFdC groups were given with 22 mg/kg/day (i.g.), respectively, and the dFdC groups were given with 15 mg/kg/day (i.p.), respectively. The tumor sizes of all mice were monitored at 0 d, 3 d, 6 d, 9 d, 12 d, and 15 d after drug treatment. The tumor size was converted into tumor volume (V), which was calculated by the formula (L × W^2 × 0.52) and presented as the mean ± standard deviation, where L and W are the length and width of the tumor, respectively. The tumors were measured with a Vernier caliper until day 15, when the PBS brine-treated mice began to die, then all […] were sacrificed via nitrogen inhalation.

[2] = Tissue distribution (liver, kidney, intestine); assay type: in vivo, SD rats; conditions: rats
Procedure: In order to investigate the drug distribution in different tissues and the relationship between CES1 activity and tissue concentration, we conducted tissue distribution experiments. The SD rats were divided into six groups (n = 6 for each group). After a single intragastric administration of Cbz-dFdC (22 mg/kg) and a single injected administration of dFdC (15 mg/kg), the SD rats were sacrificed at 0.5 h, 1.5 h, and 4 h, and the liver, kidney, and intestine were collected. The liver was perfused with ice-cold normal saline and then removed, followed by ice-cold normal saline cleaning. The kidney and intestine were directly removed and then washed with ice-cold normal saline. All of the above operations were carried out on ice, and the removed tissue was stored in an ice bath. The liver, kidney, and intestine were cut and crushed, homogenized with an appropriate amount of phosphate buffer by a homogenizer, and then diluted 5 times with ice-cold PBS buffer (in an ice bath). The tissue homogenates were determined with a BCA kit for protein concentration, a CES1 kit for CES1 activity, and UFLC–MS/MS for drug tissue concentration after pretreatment; the pretreatment method was reported previously.

[3] = Enzymatic kinetics in vitro, human liver S9; assay type: in vitro ADME
Procedure: The SD rats without any treatment were sacrificed after adapting to the environment. Blank blood, the liver, the kidney, and the intestine were collected and treated as described in Section 4.4. Part of the homogenate was removed for centrifugation for 20 min at 9000× g at 4 °C, and the supernatant was obtained as tissue S9. The tissue homogenate and S9 were diluted to […] after the protein concentration was determined by the BCA kit (Abcam, Cambridge, MA, USA). Each matrix consisted of 45 uL of the matrix mixed with 5 uL of the drug dissolved in normal saline solution for about 3 min, followed by incubation at 37 °C in a water bath. Then, acetonitrile containing the internal standard was added to terminate the reaction. Human tissue S9 and human CES1 recombinase purchased from the Ruid Liver Disease Research Co., Ltd. (Shanghai, China) were incubated under the same conditions. An enzyme kinetic study was obtained from the matrix following incubation at 37 °C for 30 min with 5, 10, 20, 50, 100, or 200 μM of Cbz-dFdC. We estimated the parameters and simulated curves according to the Eadie–Hofstee method.

[4] = Human Liver S9, 37 °C, 30 min, 5–200 μM Cbz-dFdC

tissue penetration ([2]; drug concentration in tissue lower than plasma concentration): weak tissue penetration
microsomal CLint ([3]; Human Liver S9, 37 °C, 30 min, 5–200 μM Cbz-dFdC, read-out: Clint, disappearance of Cbz-dFdC): 13800 µL/min/mg
Km at 30 min ([3]; Human Liver S9, 37 °C, 30 min, 5–200 μM Cbz-dFdC, read-out: Km, disappearance of Cbz-dFdC): 108 µM
stability in human liver S9 ([3]; human liver S9, easily hydrolyzed into dFdC): unstable
Compound: O=C(Nc1ccn([C@@H]2O[C@H](CO)[C@@H](O)C2(F)F)c(=O)n1)OCc1ccccc1 [Cbz-dFdC, 4-N-carbobenzoxy-gemcitabine]
antitumor effect (tumor size) [1]: slightly better than that of dFdC
Cbz-dFdC level in the intestine versus other tissues ([2]; after i.g. Cbz-dFdC 22 mg/kg, liver, kidney, intestine, especially at 0.5 h): significantly higher than that in the other tissues; also recorded: mainly distributed in the intestine
Vmax, appearance of dFdC [3, 4]: 480.6 nmol/min/mg pro
Vmax, disappearance of Cbz-dFdC [3, 4]: 1491.3 nmol/min/mg pro
